# From ChEMBL document CHEMBL1201862, “PubChem BioAssay data set” (2004)
#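 Values below derive from 48-hour exposures of cells grown in 96-well plates, with endpoints linearly interpolated between the two concentrations bracketing the appropriate inhibition level. GI50 = concentration required for 50% inhibition of growth.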 Activity calls are given as the source filed them. No stated cut-off is given here; in the data, active = GI50 up to about 1.1 µM and inactive = higher.
# Key:
# Experiment in all cases: growth of human tumour cells (NCI), 48 h
# NCI-H226 = tested on: NCI-H226
# NCI-H460 = tested on: NCI-H460
# ACHN = tested on: ACHN
# 786-0 = tested on: 786-0
# SF-539 = tested on: SF-539
# PC-3 = tested on: PC-3
# HL-60 = tested on: HL-60
# MDA-N = tested on: MDA-N
# Hs-578T = tested on: Hs-578T
# NCI-H23 = tested on: NCI-H23
# SN12C = tested on: SN12C
# SF-268 = tested on: SF-268
# SNB-75 = tested on: SNB-75
# MCF7 = tested on: MCF7
# OVCAR-8 = tested on: OVCAR-8
# RPMI-8226 = tested on: RPMI-8226
# IGROV-1 = tested on: IGROV-1
# M14 = tested on: M14
# SF-295 = tested on: SF-295
# HCT-15 = tested on: HCT-15
# SR = tested on: SR
# HOP-62 = tested on: HOP-62
# U-251 = tested on: U-251
# HT-29 = tested on: HT-29
# SW-620 = tested on: SW-620
# COLO 205 = tested on: COLO 205
# NCI/ADR-RES = tested on: NCI/ADR-RES
# MDA-MB-435 = tested on: MDA-MB-435
# A549 = tested on: A549
# SK-MEL-28 = tested on: SK-MEL-28
# K562 = tested on: K562
# MDA-MB-231 = tested on: MDA-MB-231
# SK-MEL-2 = tested on: SK-MEL-2
# SK-OV-3 = tested on: SK-OV-3
# HOP-92 = tested on: HOP-92
# T47D = tested on: T47D
# HCT-116 = tested on: HCT-116
# NCI-H522 = tested on: NCI-H522
# OVCAR-5 = tested on: OVCAR-5
# EKVX = tested on: EKVX
# UACC-62 = tested on: UACC-62
# A498 = tested on: A498
# UO-31 = tested on: UO-31
# DU-145 = tested on: DU-145
# RXF 393 = tested on: RXF 393
# SK-MEL-5 = tested on: SK-MEL-5
# MOLT-4 = tested on: MOLT-4
# CAKI-1 = tested on: CAKI-1
# HCC 2998 = tested on: HCC 2998
# BT-549 = tested on: BT-549
# LOX IMVI = tested on: LOX IMVI
# KM12 = tested on: KM12
# CCRF-CEM = tested on: CCRF-CEM
# Malme-3M = tested on: Malme-3M
# OVCAR-4 = tested on: OVCAR-4
# UACC-257 = tested on: UACC-257
# OVCAR-3 = tested on: OVCAR-3
# TK-10 = tested on: TK-10
# SNB-19 = tested on: SNB-19
compound,measurement,setting,value
CCOC(=O)c1ccc(NC(=O)Oc2ccc3c(C)cc(=O)oc3c2)cc1,GI50,NCI-H226,32.7 µM (inactive)
same,GI50,NCI-H460,29.6 µM (inactive)
same,GI50,ACHN,41.4 µM (inactive)
same,GI50,786-0,45.6 µM (inactive)
same,GI50,SF-539,> 100 µM (inactive)
same,GI50,PC-3,38.4 µM (inactive)
same,GI50,HL-60,30.4 µM (inactive)
same,GI50,MDA-N,32.1 µM (inactive)
same,GI50,Hs-578T,29.6 µM (inactive)
same,GI50,NCI-H23,32.4 µM (inactive)
same,GI50,SN12C,33.1 µM (inactive)
same,GI50,SF-268,37 µM (inactive)
same,GI50,SNB-75,32 µM (inactive)
same,GI50,MCF7,30.8 µM (inactive)
same,GI50,OVCAR-8,35.5 µM (inactive)
same,GI50,RPMI-8226,30.3 µM (inactive)
same,GI50,IGROV-1,38.5 µM (inactive)
same,GI50,M14,28.5 µM (inactive)
same,GI50,SF-295,30.1 µM (inactive)
same,GI50,HCT-15,33.7 µM
same,GI50,SR,24.2 µM (inactive)
same,GI50,HOP-62,31.6 µM (inactive)
same,GI50,U-251,32.9 µM (inactive)
same,GI50,HT-29,32.7 µM (inactive)
same,GI50,SW-620,36.2 µM (inactive)
same,GI50,COLO 205,34.2 µM (inactive)
same,GI50,NCI/ADR-RES,37 µM (inactive)
same,GI50,MDA-MB-435,35.6 µM (inactive)
same,GI50,A549,43.7 µM (inactive)
same,GI50,SK-MEL-28,34.9 µM (inactive)
same,GI50,K562,24.3 µM (inactive)
same,GI50,MDA-MB-231,30.3 µM (inactive)
same,GI50,SK-MEL-2,23 µM (inactive)
same,GI50,SK-OV-3,29.6 µM (inactive)
same,GI50,HOP-92,23.7 µM (inactive)
same,GI50,T47D,22.2 µM (inactive)
same,GI50,HCT-116,28.2 µM (inactive)
same,GI50,NCI-H522,18.7 µM (inactive)
same,GI50,OVCAR-5,23.1 µM (inactive)
same,GI50,EKVX,42.9 µM (inactive)
same,GI50,UACC-62,31.8 µM (inactive)
same,GI50,A498,> 100 µM (inactive)
same,GI50,UO-31,33.1 µM (inactive)
same,GI50,DU-145,37.2 µM (inactive)
same,GI50,RXF 393,58.6 µM (inactive)
same,GI50,SK-MEL-5,14.7 µM (inactive)
same,GI50,MOLT-4,22.5 µM (inactive)
same,GI50,CAKI-1,36.1 µM (inactive)
same,GI50,HCC 2998,23.7 µM (inactive)
same,GI50,BT-549,17.2 µM (inactive)
same,GI50,LOX IMVI,34.5 µM (inactive)
same,GI50,KM12,20.9 µM (inactive)
same,GI50,CCRF-CEM,22.6 µM (inactive)
same,GI50,Malme-3M,42.6 µM (inactive)
same,GI50,OVCAR-4,50.1 µM (inactive)
same,GI50,UACC-257,43.2 µM (inactive)
same,GI50,OVCAR-3,32.7 µM (inactive)
same,GI50,TK-10,> 100 µM (inactive)
same,GI50,SNB-19,29.7 µM (inactive)
